Measured values: PubChem BioAssay (NCI)
Values joined by “and” are separate entries in the source; they are usually repeats but may differ in a detail not shown here. Equal entries are not always repeated.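 Values below derive from 48-hour exposures of cells grown in 96-well plates, with endpoints linearly interpolated between the two concentrations bracketing the appropriate inhibition level. Abbreviation: GI50, concentration required for 50% inhibition of growth. The concentration for full growth arrest is given as TGI.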

Key:
Experiment in all cases: growth of human tumour cells (NCI), 48 h
[1] = system: DU-145 prostate
[2] = system: T-47D breast
[3] = system: MDA-MB-231 breast
[4] = system: MCF7 breast
[5] = system: PC-3 prostate
[6] = system: KM20L2 colon
[7] = system: HOP-18 NSCLC
[8] = system: LXFL 529 NSCLC
[9] = system: DMS 273 small cell lung
[10] = system: XF 498 CNS

O=C(O)c1nnsc1COCc1ccccc1 was tested, and the TGI [1] was over 100 µM, the TGI [2] was over 100 µM and the TGI [3] was over 100 µM. For the same molecule, the TGI [4] was over 100 µM and the TGI [5] was over 100 µM.
Cc1ccc(-c2cc3nc(-c4ccccc4)nc(C(Cl)Cl)n3n2)cc1 showed a GI50 [1] of 0.573 µM, a TGI [1] of 1.2 µM and a GI50 [2] of 0.718 µM. The TGI [2] was 2.3 µM, the GI50 [3] was 0.628 µM and the TGI [3] was 1.59 µM. It also gave a GI50 [4] of 0.845 µM, a TGI [4] of 4.55 µM and a GI50 [5] of 0.781 µM. It also gave a TGI [5] of 2.05 µM.
OC1CCC(Oc2cccc3cnc(Nc4ccc5nc[nH]c5c4)nc23)CC1 (configuration not stated) was tested, and the GI50 [1] was 0.246 µM, the TGI [1] was 17.2 µM and the GI50 [2] was 1.03 µM. It also gave a TGI [2] of 14.4 µM, a GI50 [3] of 0.389 µM and a TGI [3] of 19.8 µM. It also gave a GI50 [4] of 0.217 µM, a TGI [4] of 3.1 µM and a GI50 [5] of 0.254 µM. It also gave a TGI [5] of 20.7 µM.
With O=C(N=Nc1c(O)[nH]c2ccccc12)c1ccccc1O the TGI [6] was over 100 µM, the TGI [7] was over 100 µM and the TGI [8] was over 100 µM.
Molecule COc1ccc([N+](=O)[O-])c2c(NCC(O)CO)ccnc12 (configuration not stated) has a TGI [1] of over 100 µM, a TGI [2] of over 100 µM and a TGI [3] of over 100 µM. The TGI [4] was over 100 µM and the TGI [5] was over 100 µM.
Cc1ccc2c(c1)sc(-c1ccc(N(C)C)cc1)[n+]2C showed a GI50 [1] of 1.95 µM, a TGI [1] of 32 µM and a GI50 [2] of 0.299 µM. The TGI [2] was 5.59 µM, the GI50 [3] was 2.75 µM and the TGI [3] was 21.1 µM. For the same molecule, the GI50 [4] was 0.745 µM, the TGI [4] was 28.3 µM and the GI50 [5] was 0.677 µM. The TGI [5] was 9.23 µM.
For O=[N+]([O-])/C=C\c1ccc2c(c1)OCO2, the GI50 [1] was 3.07 µM, the TGI [1] was 10.2 µM and the GI50 [2] was 5.27 µM. It also gave a TGI [2] of 26.2 µM, a GI50 [3] of 12.1 µM and a TGI [3] of 27.5 µM. It also gave a GI50 [4] of 1.99 µM, a TGI [4] of 10.4 µM and a GI50 [5] of 2.62 µM. For the same molecule, the TGI [5] was 7.34 µM.
Molecule Cn1nnnc1[N-]Cc1ccccc1.[Au+].c1ccc([PH+](c2ccccc2)c2ccccc2)cc1 has a GI50 [6] of 8.56 µM, a TGI [6] of 29.8 µM and a GI50 [7] of 2.25 µM. For the same molecule, the TGI [7] was 4.98 µM, the GI50 [8] was 1.45 µM and the TGI [8] was 2.79 µM. The GI50 [9] was 11.1 µM and the TGI [9] was over 100 µM.
Molecule CN(C)CCNC(=O)c1cccc(CO)c1[N+](=O)[O-] has a TGI [1] of over 100 µM, a TGI [2] of over 100 µM and a TGI [3] of over 100 µM. The TGI [4] was over 100 µM and the TGI [5] was over 100 µM.
Work on ClCCn1cnc2c(SCc3ccccc3)ncnc21 yielded a GI50 [1] of 3.82 µM, a TGI [1] of over 100 µM and a GI50 [2] of 11.7 µM. The TGI [2] was over 100 µM, the GI50 [3] was 30 µM and the TGI [3] was over 100 µM. It also gave a GI50 [4] of 1.65 µM, a TGI [4] of over 100 µM and a GI50 [5] of 0.356 µM. It also gave a TGI [5] of over 100 µM.
In the case of Cn1cnc([N+](=O)[O-])c1Sc1ncnc2nc[nH]c12, the GI50 [1] is reported as 3.03 µM and 4.36 µM, the TGI [1] is reported as over 100 µM and the GI50 [2] is reported as 2.75 µM and 4.51 µM. For the same molecule, the TGI [2] was over 100 µM, the GI50 [3] was 8.83 µM and 11.7 µM and the TGI [3] was over 100 µM. For the same molecule, the GI50 [4] was 2.92 µM and 3.69 µM, the TGI [4] was over 100 µM and the GI50 [5] was 25.6 µM and 45.9 µM. For the same molecule, the TGI [5] was over 100 µM.
For CCOC(=O)c1c2ccc(/C=C/C(=O)OC)ccc-2c(C(=O)OCC)c1N, the TGI [6] was over 100 µM, the TGI [7] was over 100 µM and the TGI [8] was over 100 µM. The TGI [9] was over 100 µM.
For Cc1ccc(N2C(=O)C(Cl)=C(Nc3cccc(O)c3)C2=O)cc1Cl, the GI50 [1] was 16.9 µM, the TGI [1] was 31.5 µM and the GI50 [2] was 49.6 µM. It also gave a TGI [2] of over 100 µM, a GI50 [4] of 6.16 µM and a TGI [4] of 32 µM. The GI50 [5] was 12.5 µM and the TGI [5] was 30.9 µM.
Molecule O=Nc1c2cccnc2n2nnc3ccc(Cl)cc3c12 has a GI50 [1] of 0.893 µM, a TGI [1] of 2.93 µM and a GI50 [2] of 0.412 µM. The TGI [2] was 1.7 µM, the GI50 [3] was 1.41 µM and the TGI [3] was 7.76 µM. The GI50 [4] was 0.792 µM, the TGI [4] was 3.39 µM and the GI50 [5] was 1.09 µM. It also gave a TGI [5] of 7.98 µM.
With COc1cccc2c(=O)c3c(sc12)c(NCCCN)nc1ccccc13 the GI50 [1] was 1.48 µM, the TGI [1] was 2.82 µM and the GI50 [3] was 1.29 µM. It also gave a TGI [3] of 2.67 µM, a GI50 [5] of 1.58 µM and a TGI [5] of 3.14 µM.
With CCOC(=O)/C(C1=CC(=O)C(=O)c2ccccc21)=C(/C)NCc1ccccc1 the GI50 [1] was 1.79 µM, the TGI [1] was 3.32 µM and the GI50 [2] was 2.27 µM. The TGI [2] was over 100 µM, the GI50 [3] was 1.37 µM and the TGI [3] was 3.28 µM. The GI50 [4] was 2.05 µM, the TGI [4] was 4.75 µM and the GI50 [5] was 1.23 µM. It also gave a TGI [5] of 2.48 µM.
Work on O=C1NC(=O)C(c2ccccc2Cl)=C1Nc1cccc(O)c1 yielded a GI50 [1] of 9.29 µM, a TGI [1] of over 25 µM and a GI50 [2] of over 10.4 µM. For the same molecule, the TGI [2] was over 25 µM, the GI50 [3] was over 25 µM and the TGI [3] was over 25 µM. For the same molecule, the GI50 [4] was 3.99 µM, the TGI [4] was over 20.7 µM and the GI50 [5] was 11.3 µM. The TGI [5] was over 25 µM.
With OCCCNCc1ccccn1 the TGI [1] was over 100 µM, the TGI [2] was over 100 µM and the TGI [3] was over 100 µM. It also gave a TGI [4] of over 100 µM and a TGI [5] of over 100 µM.
O=C1OCC2=Nc3cccc4cccc(c34)N12 gave a TGI [1] of over 100 µM, a TGI [2] of over 100 µM and a TGI [3] of over 100 µM. For the same molecule, the TGI [4] was over 100 µM and the TGI [5] was over 100 µM.
COC(=O)/C(=N/NC(C)(C)C)C(C(=O)C=C(C)C)C(=O)C(=O)Nc1ccc(Cl)cc1C (configuration not stated) was tested, and the TGI [10] was over 100 µM, the TGI [6] was over 100 µM and the TGI [8] was over 100 µM.
With CC1=CC[C@@H]2C(C)(C)[C@@H](O)CC[C@@]2(C)[C@@H]1COc1ccc2ccc(=O)oc2c1 the GI50 [1] was 5.39 µM, the TGI [1] was 17.8 µM and the GI50 [2] was 2.27 µM. For the same molecule, the TGI [2] was 7.14 µM, the GI50 [3] was 13.9 µM and the TGI [3] was 43.3 µM. For the same molecule, the GI50 [4] was 7.3 µM, the TGI [4] was 27 µM and the GI50 [5] was 3.28 µM. The TGI [5] was 15.9 µM.
c1cc2c(cnc3cscc32)s1 gave a TGI [10] of over 100 µM and a TGI [9] of over 100 µM.
Cc1cc(O)cc(C)c1/C=C/c1cncc(C(=O)N(C)C)c1 showed a GI50 [1] of over 25 µM, a TGI [1] of over 25 µM and a GI50 [2] of over 25 µM. The TGI [2] was over 25 µM, the GI50 [3] was over 25 µM and the TGI [3] was over 25 µM. For the same molecule, the GI50 [4] was over 25 µM, the TGI [4] was over 25 µM and the GI50 [5] was over 25 µM. It also gave a TGI [5] of over 25 µM.
For CN(C)CCNc1cccc2sc3ccc(O)cc3c(=O)c12, the GI50 [1] was 1.12 µM, the TGI [1] was 11.2 µM and the GI50 [2] was 2.56 µM. The TGI [2] was 12.8 µM, the GI50 [3] was 1.48 µM and the TGI [3] was 3.72 µM. For the same molecule, the GI50 [4] was 1.14 µM, the TGI [4] was 2.96 µM and the GI50 [5] was 2.44 µM. It also gave a TGI [5] of 13.4 µM.
With Cn1c(=O)c2c(nc3n2CCC(=O)N3)n(C)c1=O the TGI [6] was over 100 µM, the TGI [8] was over 100 µM and the TGI [9] was over 100 µM.
NC(N)=NNC(=O)C(=O)O showed a TGI [1] of over 100 µM, a TGI [2] of over 100 µM and a TGI [3] of over 100 µM. For the same molecule, the TGI [4] was over 100 µM and the TGI [5] was over 100 µM.
